According to patent US6649784B2, “Aspartyl dipeptide ester derivatives and sweeteners” (Ajinomoto Co., Inc., priority 1999, dated 2003):

Legend:
[1] = organoleptic (sensory) test of sweetening potency; details: for Sweetening potency: value compared with a 4% sucrose aqueous solution
Description: For example, a sweetening potency of N-[N-[3-(3,4-dihydroxyphenyl)-3-methylbutyl]-L-α-aspartyl]-L-phenylalanine 1-methyl ester was approximately 50,000 times (relative to sugar), and a sweetening potency of N-[N-[3-(3,4,5-trihydroxyphenyl)propyl]-L-α-aspartyl]-L-phenylalanine 1-methyl ester was approximately 25,000 times (relative to sugar).
The structures and the results of the sensory test on some aspartyl dipeptide ester derivatives (represented by the following general formula (1)) formed are shown in Table 1.

[2] = times that of sucrose/sugar; reported in WO 94/11391 (b9: compared with 2, 5 and 10% sucrose solutions); cited from earlier work

SMILES	Sweetening potency (relative to sugar) [1]	Sweetening potency [1]	sweetening potency (degree of sweetness) [2]	also measured
COC(=O)[C@H](Cc1ccccc1)NC(=O)[C@H](CC(=O)O)NCCCc1ccc(O)c(O)c1O [Compound 3, N-[N-[3-(2,3,4-trihydroxyphenyl)propyl]-L-α-aspartyl]-L-phenylalanine 1-methyl Ester]	10,000 times	10000	–	–
COC(=O)[C@H](Cc1ccccc1)NC(=O)[C@H](CC(=O)O)NCCC(C)(C)c1ccc(O)c(O)c1 [Compound 5, N-[N-[3-(3,4-dihydroxyphenyl)-3-methylbutyl]-L-α-aspartyl]-L-phenylalanine 1-methyl Ester]	–	50000	–	Sweetening potency (relative to sugar) ([1]; listed as Example 5): 50,000 times; Sweetening potency (relative to sugar) ([1]; listed as N-[N-[3-(3,4-dihydroxyphenyl)-3-methylbutyl]-L-α-aspartyl]-L-phenylalanine 1-met): approximately 50,000 times
COC(=O)[C@H](Cc1ccccc1)NC(=O)[C@H](CC(=O)O)NCCC(C)c1ccccc1 (mixture of isomers) [N-[N-[(RS)-3-phenylbutyl]-L-α-aspartyl]-L-phenylalanine 1-methyl ester]	–	–	1,200 times	–
COC(=O)[C@H](Cc1ccccc1)NC(=O)[C@H](CC(=O)O)NCCCc1ccc(O)c(OC)c1 [N-[N-[3-(3-methoxy-4-hydroxyphenyl)propyl]-L-α-aspartyl]-L-phenylalanine 1-methyl ester]	–	–	2,500 times	–
COC(=O)[C@H](Cc1ccccc1)NC(=O)[C@H](CC(=O)O)NCCCc1cc(O)c(O)c(O)c1 [Compound 4, N-[N-[3-(3,4,5-trihydroxyphenyl)propyl]-L-α-aspartyl]-L-phenylalanine 1-methyl Ester]	–	25000	–	Sweetening potency (relative to sugar) ([1]; listed as Example 4): 25,000 times; Sweetening potency (relative to sugar) ([1]; listed as N-[N-[3-(3,4,5-trihydroxyphenyl)propyl]-L-α-aspartyl]-L-phenylalanine 1-methyl e): approximately 25,000 times
COC(=O)[C@H](Cc1ccccc1)NC(=O)[C@H](CC(=O)O)NCCCc1ccc(O)c(O)c1 [Compound 2, N-[N-[3-(3,4-dihydroxyphenyl)propyl]-L-α-aspartyl]-L-phenylalanine 1-methyl Ester]	15,000 times	15000	–	–
COC(=O)[C@H](Cc1ccccc1)NC(=O)[C@H](CC(=O)O)NCCCc1ccccc1 [N-[N-(3-phenylpropyl)-L-α-aspartyl]-L-phenylalanine 1-methyl ester]	–	–	1,500 times	–
COC(=O)[C@H](Cc1ccccc1)NC(=O)[C@H](CC(=O)O)NCCC(C)(C)C [N-[N-(3,3-dimethylbutyl)-L-α-aspartyl]-L-phenylalanine 1-methyl ester]	–	–	10,000 times	–
COC(=O)[C@H](Cc1ccccc1)NC(=O)[C@H](CC(=O)O)NCCCc1ccc(O)cc1O [Compound 1, N-[N-[3-(2,4-dihydroxyphenyl)propyl]-L-α-aspartyl]-L-phenylalanine 1-methyl Ester]	10,000 times	10000	–	–
